Source: patent publication US20060052459A1, “Antifungal medicaments comprising arylamidine derivatives” (priority 2002, published 2006)
Where two headings read alike, the source gives them in different places.

Key:
[1] = test system: Candida albicans strains IP 48.72 (ATCC 10231); test: In vitro antifungal growth inhibition on microtitre plates (optical density 590 nm), compounds alone or as mixtures (Wadley method); assay type: cell-based; conditions: Candida albicans, ATCC10231, 48 h, 48 hours at 30° C.; for inhibition at 0.026 µg/mL: dose 0.026 μg/ml; for inhibition at 0.098 µg/mL: dose 0.098 μg/ml; for inhibition at 0.39 µg/mL: dose 0.39 μg/ml; for inhibition at 1.562 µg/mL: dose 1.562 μg/ml; for inhibition at 6.25 µg/mL: dose 6.25 μg/ml; for inhibition at 25 µg/mL: dose 25 μg/ml; for inhibition at 100 µg/mL: dose 100 μg/ml; for EC50: read-out: EC50
Experimental: (§1) The following fungi were used for this study: Candida albicans strains IP 48.72 (ATCC 10231) and Aspergillus fumigatus strain IP 864.64 obtained from the Collection Nationale de Cultures de Microorganismes (CNCM) of the Institut Pasteur. The strains are cultured on Yeast Extract-Peptone-Dextrose (YEPD) agar medium comprising 0.5% yeast extract, 0.5% bactopeptone, 2% glucose and 2% agar at 30° C. and in the dark.
(§2) All these compounds were prepared in a DMSO solution at a final concentration of 100 mg/ml. The stock solutions are stored at −20° C. up to the time of use.
(§3) The trials are carried out in RPMI 1640 medium with no sodium bicarbonate, but with L-glutamine buffered with 0.165 mol per litre of 3-[N-morpholino]propanesulphonic acid (MOPS), enriched (<>) or otherwise (<>) with 2% glucose. The pH of this medium is adjusted to 7.0. The medium is sterilized by filtration (0.22 μm) and stored at 4° C. up to the time of use.
(§4) All the antifungal tests are carried out on microtitre plates. The initial suspensions of spores are prepared in a sterile solution containing 0.85% NaCl, supplemented with Tween 80 at 0.01%. These initial suspensions are then diluted in the culture medium (RPMI 1640 enriched or otherwise with 2% glucose) to a final concentration of 10^4 spores per ml. The measurements of viability of each inoculum are verified by subcultures of a volume of 300 μl on YEPD agar medium.
(§5) The antifungal compounds are tested in a range of concentrations ranging from 0.026 to 100 μg of active ingredient/ml. These antifungal compounds are then diluted in RPMI 1640 medium enriched or otherwise with 2% glucose. A final DMSO concentration of 0.2% is used throughout the measurements. Each trial is carried out on a series of dilutions of antifungal compounds, in duplicate. The antifungal dilutions (0.1 ml) and the fungal inoculum (0.1 ml) are added to each of the wells of the microtitre plate. The plates are then read with a spectrophotometer (ELX 800UV Bio-Tek Instruments, Inc) at a wavelength of 590 nm. The plates are read immediately after (t=0) and after 48 hours' incubation at 30° C. and in the dark. The optical density values obtained are correlated with fungal growth between the times t=0 and t=48 hours. The optical density values are used to calculate the percentage inhibition of growth for each concentration of antifungals by comparison with the control. The values are then used to plot a dose-response curve and the EC50 value is determined for each fungus and each compound with the aid of the Grafit 5.0® software (Erithacus software Ltd).
(§6) The method which was used to measure the type of interaction existing between the antifungal compounds in the form of mixtures is the Wadley method.
(§7) In the Wadley approach, the dose-response curve for each of the compounds A and B, and for the mixture AB, is constructed. The EC50 is calculated for each compound taken individually and for the mixture. If a and b are the absolute quantities of the compounds A and B in the mixture (a=1, b=1, a+b=2 under our conditions), the expected effective concentration (EC50exp) may be calculated in the following manner: EC50exp=(a+b)/[a/EC50A)+b/(EC50B)
(§8) The Wadley approach may be used to estimate the type of interaction existing between the fungal compounds, regardless of their concentration. Its reliability is not dependent on the percentage inhibition. The type of interaction between two compounds is given by the level of interaction (LI) which corresponds to the ratio between the expected effective concentration (EC50exp) and that observed (EC50obs) of the mixture. The nature of the interaction obtained by the Wadley formula is presented in Table 1 (see U. Gisi, Synergistic interaction in fungicide mixtures, 1996. Phytopathology 86, 1273-1279) below.
(§9) The experimental conditions are the same as previously described.

[2] = test system: Aspergillus fumigatus strain IP 864.64; test: as above; assay type: cell-based; conditions: Aspergillus fumigatus, IP864.64, 48 h, 48 hours at 30° C.; for inhibition at 0.026 µg/mL: dose 0.026 μg/ml; for inhibition at 0.098 µg/mL: dose 0.098 μg/ml; for inhibition at 0.39 µg/mL: dose 0.39 μg/ml; for inhibition at 1.562 µg/mL: dose 1.562 μg/ml; for inhibition at 6.25 µg/mL: dose 6.25 μg/ml; for inhibition at 25 µg/mL: dose 25 μg/ml; for inhibition at 100 µg/mL: dose 100 μg/ml
Experimental: as §1, §2, §3, §4, §5, §6, §7, §8, §9

[3] = minimal RPMI 1640 medium (MM), used alone
[4] = rich RPMI 1640 medium (RM), used alone
[5] = second study, strain IP 48.72, RPMI 1640 medium enriched with 2% glucose
[6] = second study, strain IP 864.64, RPMI 1640 medium enriched with 2% glucose, read-out: EC50

## OC(Cn1cncn1)(Cn1cncn1)c1ccc(F)cc1F [Compound II.1, fluconazole]
[1]; minimal RPMI 1640 medium (MM)
  inhibition at 0.026 µg/mL: 2.1%
  inhibition at 0.098 µg/mL: 9.7%
  inhibition at 0.39 µg/mL: 38.5%
  inhibition at 1.562 µg/mL: 64.7%
  inhibition at 6.25 µg/mL: 77.7%
  inhibition at 25 µg/mL: 81.9%
  inhibition at 100 µg/mL: 91.6%
[1]; rich RPMI 1640 medium (RM)
  inhibition at 0.026 µg/mL: 11.1%
  inhibition at 0.098 µg/mL: 32.5%
  inhibition at 0.39 µg/mL: 72.6%
  inhibition at 1.562 µg/mL: 86.8%
  inhibition at 6.25 µg/mL: 94%
  inhibition at 25 µg/mL: 95.3%
  inhibition at 100 µg/mL: 36.1%
[1]; [3]
  EC50: 0.96 µg/mL
[1]; [4]
  EC50: 0.19 µg/mL
[1]; [5]
  EC50: 0.354 µg/mL
[2]; minimal RPMI 1640 medium (MM)
  inhibition at 0.026 µg/mL: 4.8%
  inhibition at 0.098 µg/mL: 4.8%
  inhibition at 0.39 µg/mL: 5.8%
  inhibition at 1.562 µg/mL: 8.7%
  inhibition at 6.25 µg/mL: 7.7%
  inhibition at 25 µg/mL: 23.1%
  inhibition at 100 µg/mL: 41.4%
[2]; rich RPMI 1640 medium (RM)
  inhibition at 0.026 µg/mL: 11.2%
  inhibition at 0.098 µg/mL: 20.7%
  inhibition at 0.39 µg/mL: 25.9%
  inhibition at 1.562 µg/mL: 27.6%
  inhibition at 6.25 µg/mL: 28.4%
  inhibition at 25 µg/mL: 48.3%
  inhibition at 100 µg/mL: 46.6%
[2]; minimal RPMI 1640 medium (MM), extrapolated with Grafit 5.0, read-out: EC50 (extrapolated from the dose-response curves)
  EC50: 575 µg/mL
[2]; rich RPMI 1640 medium (RM), extrapolated with Grafit 5.0, read-out: EC50 (extrapolated from the dose-response curves)
  EC50: 125 µg/mL
[2]; [6]
  EC50: 125 µg/mL

## CCC(C)n1ncn(-c2ccc(N3CCN(c4ccc(OCC5COC(Cn6cncn6)(c6ccc(Cl)cc6Cl)O5)cc4)CC3)cc2)c1=O (centres unmarked) [Compound II.2, itraconazole]
[1]; minimal RPMI 1640 medium (MM)
  inhibition at 0.026 µg/mL: 58.1%
  inhibition at 0.098 µg/mL: 75.4%
  inhibition at 0.39 µg/mL: 78.2%
  inhibition at 1.562 µg/mL: 74.6%
  inhibition at 6.25 µg/mL: 78.6%
  inhibition at 25 µg/mL: 87.9%
  inhibition at 100 µg/mL: 95.2%
[1]; rich RPMI 1640 medium (RM)
  inhibition at 0.026 µg/mL: 44.7%
  inhibition at 0.098 µg/mL: 85.1%
  inhibition at 0.39 µg/mL: 86.2%
  inhibition at 1.562 µg/mL: 85.1%
  inhibition at 6.25 µg/mL: 86.2%
  inhibition at 25 µg/mL: 95.2%
  inhibition at 100 µg/mL: 95.2%
[1]; [3]
  EC50: 0.022 µg/mL
[1]; [4]
  EC50: 0.017 µg/mL
[1]; [5]
  EC50: 0.082 µg/mL
[2]; minimal RPMI 1640 medium (MM)
  inhibition at 0.026 µg/mL: 2.2%
  inhibition at 0.098 µg/mL: 31.8%
  inhibition at 0.39 µg/mL: 49.3%
  inhibition at 1.562 µg/mL: 99.6%
  inhibition at 6.25 µg/mL: 100%
  inhibition at 25 µg/mL: 100%
  inhibition at 100 µg/mL: 99%
[2]; rich RPMI 1640 medium (RM)
  inhibition at 0.026 µg/mL: 18.6%
  inhibition at 0.098 µg/mL: 47.5%
  inhibition at 0.39 µg/mL: 88.6%
  inhibition at 1.562 µg/mL: 99.2%
  inhibition at 6.25 µg/mL: 100%
  inhibition at 25 µg/mL: 100%
  inhibition at 100 µg/mL: 100%
[2]; minimal RPMI 1640 medium (MM), used alone, read-out: EC50
  EC50: 0.27 µg/mL
[2]; rich RPMI 1640 medium (RM), used alone, read-out: EC50
  EC50: 0.27 µg/mL
[2]; [6]
  EC50: 0.187 µg/mL
